We go through five compounds from patent publication US8604038B2, “Pyrrolidine derived beta 3 adrenergic receptor agonists” (Merck Sharp & Dohme Corp., priority 2009, dated 2013).

SMILES strings stand for the structures. Read-outs that look alike come from different tables or passages of the source.

The subject of one assay is rats. The settings on record: intravenous administration, cited from earlier work.
The target of assay [1] is T1, human β3 adrenergic receptor (Homo sapiens, UniProt P13945).
T1 construct: expressed in transfected cells; host or cells: CHO (Chinese hamster ovary) cells, stably transfected
The assay can be described thus: Beta-3 agonist in vitro functional assay (cAMP production, LANCE, transfected CHO cells). It is filed as cell-based. The conditions noted are these: read-out: Human β3 agonist functional activity.

The mark [2] stands for this setting: Table 3, CHO cells with cloned β3 receptor, ligands titrated 10^-12 M to 10^-5 M.

T1 sequence (P13945 whole entry): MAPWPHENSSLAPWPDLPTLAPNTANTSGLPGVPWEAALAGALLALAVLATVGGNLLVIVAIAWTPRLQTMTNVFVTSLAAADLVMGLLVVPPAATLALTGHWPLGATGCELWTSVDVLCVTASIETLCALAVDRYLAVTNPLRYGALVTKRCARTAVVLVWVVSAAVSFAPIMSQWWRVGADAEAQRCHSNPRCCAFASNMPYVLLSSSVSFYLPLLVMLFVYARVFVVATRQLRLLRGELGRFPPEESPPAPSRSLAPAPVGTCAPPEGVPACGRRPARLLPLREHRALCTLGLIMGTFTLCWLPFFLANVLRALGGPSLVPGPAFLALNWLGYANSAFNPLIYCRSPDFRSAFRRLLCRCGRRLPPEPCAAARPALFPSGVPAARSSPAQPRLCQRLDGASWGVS

As to `C[C@H](Cc1ccc2c(c1)OC(C(=O)[O-])(C(=O)[O-])O2)NC[C@H](O)c1cccc(Cl)c1.[Na+].[Na+]` [CL316243], in the assay with rats (cystometric studies), the bladder capacity result is reported as “increases bladder capacity”, the micturition interval result is reported as “prolongation of micturition interval” and the residual urine volume result was “without increasing residual urine volume”. Also, the bladder pressure entry in the assay with rats is given as “reduces bladder pressure”. In the case of `CN(Cc1cnn(-c2ccccc2)c1)C(=O)c1ccc(C[C@@H]2CC[C@H]([C@H](O)c3ccccc3)N2)cc1` [Example 97], the EC50 in assay [1] (setting [2]) fell in the range of 10 to 99.9 nM. The same measure, in the same setting: then `CN(Cc1cc(-c2ccncc2)on1)C(=O)c1ccc(C[C@@H]2CC[C@H]([C@H](O)c3ccccc3)N2)cc1` [Example 107], with 100 to 999 nM. For `Cc1nc(CNC(=O)c2ccc(C[C@@H]3CC[C@H]([C@H](O)c4ccccc4)N3)cc2)cs1` [Example 27], in assay [1] (Table 1, CHO cells with cloned β3 receptor, ligands titrated 10^-10 M to 10^-5 M), the EC50 fell in the range of 10 to 99.9 nM.

With `Cc1nc(CN(C)C(=O)c2ccc(C[C@@H]3CC[C@H]([C@H](O)c4ccccc4)N3)cc2)cs1` [Example 66], the EC50 in assay [1] (setting [2]) lay within 10 to 99.9 nM.
